Reference: article PMC5919439, “Isolation and molecular characterization of novel glucarpidases: Enzymes to improve the antibody directed enzyme pro-drug therapy for cancer treatment” (PLoS ONE, 2018)

Biological target: Ps CPG2 (Pseudomonas sp. RS-16, UniProt P06621)
Assay: decrease in absorbance at […] nm, plate reader, initial rates
Format: biochemical
Conditions: 0.1 M Tris-HCl pH 7.3, 0.2 mM ZnSO4, 37°C, 0.03-0.42 mM MTX; apparent Km

Chain of Ps CPG2 (P06621 23-415): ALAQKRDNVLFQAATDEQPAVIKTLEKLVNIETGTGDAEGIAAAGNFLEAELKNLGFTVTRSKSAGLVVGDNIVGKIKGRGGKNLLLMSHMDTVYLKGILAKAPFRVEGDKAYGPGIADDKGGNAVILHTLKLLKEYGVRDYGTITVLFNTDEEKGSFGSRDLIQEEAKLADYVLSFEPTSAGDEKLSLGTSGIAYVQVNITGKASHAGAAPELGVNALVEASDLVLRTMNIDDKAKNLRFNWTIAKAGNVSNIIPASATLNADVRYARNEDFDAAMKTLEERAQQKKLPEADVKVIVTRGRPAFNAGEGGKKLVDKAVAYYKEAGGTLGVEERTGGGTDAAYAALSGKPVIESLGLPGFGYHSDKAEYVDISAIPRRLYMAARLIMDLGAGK

Km: 172 µM
Compound: CN(Cc1cnc2nc(N)nc(N)c2n1)c1ccc(C(=O)N[C@@H](CCC(=O)O)C(=O)O)cc1 [methotrexate]
